Publication PMC4667271, “Discovery of a Novel Inhibitor of the Protein Tyrosine Phosphatase Shp2” (Scientific Reports, 2015)

What was measured:
HePTP = HePTP (Homo sapiens, UniProt P35236); experiment: in vitro PTP assay (pNPP), HePTP; type: biochemical
Procedure: (§1) Plasmids for expression of His-tag fusion proteins of human PTP were constructed in PET-28a by PCR subcloning techniques. The constructions contain only the PTP domain except Full-length Shp2. Full-length Shp2 containing Tyr279-to-Ala mutant was generated by PCR-based mutagenesis. All constructs were verified by DNA sequencing. PTP-His fusion proteins were expressed in Escherichia coli BL21 and lysed in the buffer (50 mM NaH2PO4, 300 mM NaCl, 250 mM imidazole, 1 mM dithiothreitol plus 5% glycerol), purified with Ni-NTA Magnetic Agarose Beads (Qiagen). The His-tag recombinant purification protocol was carried out according to the purification under native conditions of the QIAexpress System.
(§2) The assay was set in wells of 96-well plate with a final volume of 100 μl of reaction mixture containing 10 mM of NaAc-HAc, 1 mM of ethylene diamine tetraacetic acid, 1 mM of DL-dithiothreitol and 2% of dimethyl sulfoxide, pH 5.5. Activity of the enzyme was assayed by incubating recombinant PTP protein or mutant PTP with various concentrations of Fumos in the mixture at 37 °C for 30 min. Absorbance at 405 nm was detected immediately after addition of varied concentrations of substrate, p-nitrophenyl phosphate (pNPP) to each corresponding well.

[1] = system: Gab1-Shp2 association in HEK293T cells; experiment: Gab1-Shp2 co-immunoprecipitation, HEK293T; type: cell-based, human
Procedure: Figure 3 Fumos inhibits Gab1-Shp2 association. HEK293T cells were serum-starved for 18 h, preincubated with or without Fumos (20 μM 24 h), and then treated with EGF (20 ng/ml, 5 min). (a) Shp2 was immunoprecipitated from cell lysate supernatants. (b) Gab1 was immunoprecipitated from cell lysate supernatants. Immunoprecipitates were analyzed by immunoblotting with antibodies to Gab1, RasGAP, pY and Shp2. (c) Densitometric analysis of p-Gab1/Shp2 ratio in the Western blots. **p = 0.002 < 0.01/F = 37 vs EGF. (d) Densitometric analysis of RasGAP/Gab1 ratio in the Western blots. **p < 0.01/F = 30 vs EGF, one-way ANOVA followed by Tukey’s test. Bars represent mean ± S.E.M. values from three experiments.
Cells were washed with cold PBS twice and lysed in cell lysis buffer for 10 min on ice. Then the lytic cells were centrifugated with 13,000 g for 10 min at 4 °C. The supernatant was transferred to a fresh conical centrifuge tube on ice and added 1 μg of the appropriate control IgG, together with 20 μl of resuspended volume of Protein A/G PLUS-Agarose (Santa Cruz Biotechnology, CA), then incubated at 4 °C for 30 min. The pellet beads were centrifugated at 1,000 g for 5 min at 4 °C. The supernatant with approximately 100–500 μg total cellular protein was incubated with 2 μg primary antibody against Shp2 or Gab1 for 7 h at 4 °C. Then lysates containing protein-antibody complexes were incubated with 20 μl of Protein A/G PLUS-Agarose at 4 °C on a rotating device overnight. Immunoprecipitates were collected by centrifugation at 2,500 rpm and washed for 4 times with 1 ml lysis buffer, then suspended in the loading buffer, boiled, and analyzed by SDS-PAGE.

Lyp = Lyp (Homo sapiens, UniProt Q9Y2R2); experiment: in vitro PTP assay (pNPP), Lyp; type: biochemical
Procedure: as §1, §2

[2] = system: ERK1/2 phosphorylation in HeLa cells; experiment: EGF-induced ERK1/2 activation, Western blot, HeLa; type: cell-based, human; details: 10-40 μM for 24 h, EGF 20 ng/ml 5 min
Excerpt: After centrifugation, the supernatant was collected.

Chain of HePTP (P35236 97-350 limits assumed): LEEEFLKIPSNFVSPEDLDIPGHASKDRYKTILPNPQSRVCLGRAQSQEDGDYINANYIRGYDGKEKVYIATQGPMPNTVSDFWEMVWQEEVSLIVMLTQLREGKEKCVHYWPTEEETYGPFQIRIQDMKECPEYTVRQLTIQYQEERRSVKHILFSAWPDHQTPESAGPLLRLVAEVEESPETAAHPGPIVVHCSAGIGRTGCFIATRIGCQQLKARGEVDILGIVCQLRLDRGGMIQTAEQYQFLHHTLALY
Chain of Lyp (Q9Y2R2 24-289 limits assumed): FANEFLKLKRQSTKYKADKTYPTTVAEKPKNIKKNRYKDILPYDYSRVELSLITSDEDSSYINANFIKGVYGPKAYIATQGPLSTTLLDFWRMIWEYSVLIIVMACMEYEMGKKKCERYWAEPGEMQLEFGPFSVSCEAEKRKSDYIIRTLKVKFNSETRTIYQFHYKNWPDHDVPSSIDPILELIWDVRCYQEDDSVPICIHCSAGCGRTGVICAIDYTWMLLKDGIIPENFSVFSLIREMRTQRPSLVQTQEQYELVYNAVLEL

SMILES: CC[C@@H](C)C[C@@H](C)/C=C(C)/C=C/C=C/C=C(\C)C(=O)c1c(O)c(-c2ccc(O)cc2)cn(O)c1=O [Fumos, Fumosorinone]
- IC50 (HePTP; HePTP PTP domain): > 100 µM
- IC50 selective (HePTP; HePTP relative to Shp2 PTP domain): >16
- RasGAP coimmunoprecipitated with Gab1 ([1]; EGF-stimulated, Fumos 20 μM 24 h): dramatically increased
- EGF-stimulated Gab1-Shp2 association (Gab1 in Shp2 immunoprecipitates) ([1]; Fumos 20 μM 24 h, EGF 20 ng/ml 5 min): much less Gab1 proteins were found
- Gab1-Shp2 association without EGF ([1]; Fumos alone): induces Gab1-Shp2 association
- tyrosine-phosphorylation of Gab1 ([1]; Fumos alone, no EGF): increased
- IC50 (Lyp; Lyp PTP domain): > 100 µM
- IC50 selective (Lyp; Lyp relative to Shp2 PTP domain): >16
- EGF-induced ERK1/2 phosphorylation [2]: drastically decreased
